The results in this text go back to US20110262352A1, “ARYL PIPERAZINE AND THEIR USE AS ALPHA2C ANTAGONISTS” (priority 2008, published 2011).

The target of one assay is T1, human alpha2A receptors (Homo sapiens, UniProt P08913).
T1 construct: host or cells: Chinese hamster ovary (CHO) cells, cotransfected with pCEP-Gα16
T1 sequence (P08913 1-465): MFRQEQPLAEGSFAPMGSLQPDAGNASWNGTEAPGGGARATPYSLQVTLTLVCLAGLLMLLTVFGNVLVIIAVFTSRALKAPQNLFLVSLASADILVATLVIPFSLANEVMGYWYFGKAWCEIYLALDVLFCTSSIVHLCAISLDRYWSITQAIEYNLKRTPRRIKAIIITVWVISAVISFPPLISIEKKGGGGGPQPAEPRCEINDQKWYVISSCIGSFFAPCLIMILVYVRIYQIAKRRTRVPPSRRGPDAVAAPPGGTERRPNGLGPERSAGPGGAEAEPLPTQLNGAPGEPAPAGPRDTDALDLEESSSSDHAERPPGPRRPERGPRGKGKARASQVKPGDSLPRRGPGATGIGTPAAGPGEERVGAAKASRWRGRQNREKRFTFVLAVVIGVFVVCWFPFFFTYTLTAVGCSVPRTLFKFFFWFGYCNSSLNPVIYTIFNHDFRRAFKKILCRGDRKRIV
The experiment in a line: Determination of alpha2A antagonistic activity in vitro (intracellular calcium, FLIPR Calcium 3). In kind it is cell-based. The note with it: CHO cells stably transfected with human alpha2A receptor and Gα16; stimulated with 100 nM adrenaline or 200 nM noradrenaline; 37° C. Here is the method:
(§1) Experiment 1: Determination of alpha2A and alpha2C Antagonistic Activity In Vitro
(§2) Chinese hamster ovary (CHO) cells stably transfected with human alpha2A or alpha2C receptors (University of Turku, Finland) were cotransfected with the expression vector pCEP-Gα16 (Molecular Devices, CA, USA) were used in this experiment. The cells were maintained at 37° C. in a 5% CO2/95% air atmosphere. The cells were cultured in HAM F-12 medium supplemented with 10% FCS, 25 mM HEPES, 100 IU/ml penicillin, 100 μg/ml streptomycin, 500 μg/ml geneticin and 240 μg/ml hygromycin B. The cells were subcultured twice weekly with 0.25% trypsin and 1 mM EDTA. The subculture ratio was 1:5-1:20. The growth medium was changed every 2 or 3 days. All cell culture reagents were from Gibco. The day before the experiment the cells were plated into black-walled, clear bottom 96-well plates at a density of 30,000-45,000 cells/well.
(§3) The growth medium was removed and the cells were incubated with the test compounds and the FLIPR Calcium 3 Assay reagent (Molecular Devices, CA, USA) for 1 h at 37° C. in dark. The test compounds (concentrations in cells 100 pM-10 μM) were dissolved in Probenecid-Ringer consisting of 150 mM NaCl, 3 mM KCl, 1.2 mM MgCl2, 1 mM CaCl2, 5 mM glucose, 20 mM HEPES and 2.5 mM probenecid (pH 7.4 adjusted with 1.0 M NaOH). The osmolarity was adjusted to 322 milliosmoles with Osmostat® OM-6020 osmometer (DIC Kyoto Daiichi Kagagu Co. Ltd, Japan). […] All experiments were performed at 37° C. The test compounds dissolved in Probenecid-Ringer were applied by FLEX station at 17 s time point. […] In order to determine antagonism, the cells were stimulated either with 100 nM adrenaline or 200 nM noradrenaline and the test compounds were added to the cells at least 5 min before the experiment. Typically, there were four replicates at each concentration and seven different dose levels. For example, if the number of plates from which results were obtained was three, 84 (4*7*3) wells were thus measured to construct dose-response relationship. The samples were excited at 485 nm and emission was detected at 525 nm with a 515 nm cut-off filter. Reading time was 60 s per well and the photomultiplier sensitivity value was set to 15. The minimum fluorescence value subtracted from the maximum value for each well was used in the calculations. SOFTmax PRO version 3.2 software was used for analyzing the results. Fitting of the antagonist dose-response results was performed with the free Hill equation and the IC50 values were fitted with Michaelis-Menten equation in Sigma Plot 8.0.
For orientation: Calcium assays in cells follow changes in intracellular calcium, usually with a dye or a luminescent sensor.

In the next assay the target is T2, human alpha2C receptors (Homo sapiens, UniProt P18825).
T2 construct: host or cells: Chinese hamster ovary (CHO) cells, cotransfected with pCEP-Gα16
T2 sequence (P18825 1-462): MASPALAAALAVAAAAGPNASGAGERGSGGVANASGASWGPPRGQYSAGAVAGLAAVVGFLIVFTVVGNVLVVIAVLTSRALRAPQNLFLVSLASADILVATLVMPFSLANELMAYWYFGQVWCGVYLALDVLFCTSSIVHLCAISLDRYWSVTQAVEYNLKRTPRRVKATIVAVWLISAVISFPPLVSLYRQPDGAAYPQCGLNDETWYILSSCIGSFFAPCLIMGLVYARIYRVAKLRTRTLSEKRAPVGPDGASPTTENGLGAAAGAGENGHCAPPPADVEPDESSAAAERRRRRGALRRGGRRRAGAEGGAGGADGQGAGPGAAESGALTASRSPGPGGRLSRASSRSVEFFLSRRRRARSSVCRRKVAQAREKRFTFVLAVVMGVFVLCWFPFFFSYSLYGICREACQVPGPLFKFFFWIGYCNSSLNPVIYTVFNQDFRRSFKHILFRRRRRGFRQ
The experiment in a line: Determination of alpha2C antagonistic activity in vitro (intracellular calcium, FLIPR Calcium 3). Type of assay: cell-based. Here is the method: as §1, §2, §3

Where [1] appears, read: CHO cells stably transfected with human alpha2C receptor and Gα16, stimulated with 100 nM adrenaline or 200 nM noradrenaline, 37° C., read-out: IC50/nM Alpha2C.

Where two headings read alike, the source gives them in different places.

As for `COCc1ccccc1N1CCN(C[C@H]2COc3ccccc3O2)CC1` [Example 17, (S)-1-((2,3-Dihydrobenzo[b][1,4]dioxin-2-yl)methy)-4-(2-(methoxymethyl)phenyl)piperazine], the IC50 on human alpha2A receptors amounted to 2180 nM; on human alpha2C receptors (setting [1]), 8.2 nM.
As for `COCc1ccccc1N1CCN(C[C@@H]2COc3ccccc3O2)CC1` [Example 18, (R)-1-((2,3-Dihydrobenzo[b][1,4]dioxin-2-yl)methyl)-4-(2-(methoxymethyl)phenyl)piperazine], the IC50 at human alpha2A receptors is 41100 nM; at human alpha2C receptors (setting [1]), 134 nM.
The corresponding values for `OCc1c(F)cccc1N1CCN(CC2COc3ccccc3O2)CC1` (stereo not drawn) [Example 23, (2-(4-((2,3-Dihydrobenzo[b][1,4]dioxin-2-yl)methyl)piperazin-1-yl)-6-fluorophenyl)methanol] are 10700 nM and 30.6 nM.
Turning to `c1coc(-c2ccccc2N2CCN(C[C@H]3COc4ccccc4O3)CC2)c1` [Example 29, (S)-1-((2,3-Dihydrobenzo[b][1,4]dioxin-2-yl)methyl)-4-(2-(furan-2-yl)phenyl)piperazine], the figures for the IC50 at human alpha2A receptors and on human alpha2C receptors (setting [1]) were 12700 nM and 18 nM, respectively.
Turning to `Cc1ccccc1N1CCN(C[C@H]2COc3ccccc3O2)CC1` [Example 31, (S)-1-((2,3-Dihydrobenzo[b][1,4]dioxin-2-yl)methyl)-4-o-tolylpiperazine], the IC50 on human alpha2A receptors stood at 16900 nM; on human alpha2C receptors, 17.6 nM.
`COC(=O)c1ccccc1N1CCCN(CC2COc3ccccc3O2)CC1` (stereo not drawn) [Example 36, Methyl 2-(4-((2,3-dihydrobenzo[b][1,4]dioxin-2-yl)methyl)-1,4-diazepan-1-yl)benzoate]: the figures for the IC50 at human alpha2A receptors and at human alpha2C receptors (setting [1]) were 3900 nM and 13.7 nM, respectively.
